Laboratory results as given in publication PMC10182601, “Biological evaluation of novel gemcitabine analog in patient-derived xenograft models of pancreatic cancer” (BMC Cancer, 2023).

Key:
[1] = In vitro metabolic stability of 4NSG in human liver microsomes; format: in vitro ADME; details: 4NSG 10 µM, liver microsomes 1 mg protein/mL, 37 °C, end of the 4 h study
Experimental: (§1) The metabolic stability of 4NSG was examined in the presence of PBS (pH 7.4) and human liver microsomes as previously described. Human liver microsomes were obtained from Sigma-Aldrich. 4NSG (10 µM) was spiked into PBS, or liver microsomes (1 mg protein/mL) and incubated in a shaking water bath at 37 °C for […]. Aliquots (100 µL) were taken after 0, 15, 30, 60, 120, 180, 220 and 240 min of incubation and immediately pretreated with an ice-cold methanolic solution including the internal standard, vortexed for 3 min and centrifuged (12,000 × g, 10 min). Supernatants were stored at -80 C until required for analysis.
(§2) To determine concentrations of 4NSG in PBS and human liver microsomes solutions, supernatants from PBS and human liver microsomes controls were spiked with aliquots of 0.5 μg/ml of 4NSG. The chromatographic analysis was performed according to the method described with minor modifications. The samples were prepared using aliquots of supernatants (10µL) of control (spiked), PBS, and human liver microsomes. […] A plot of the peak areas as a function of 4NSG concentration was plotted, and the linear equation of the calibration curve given as y = mx + c was determined, where y is the peak area, m is the slope, x is the concentration of 4NSG, and c is the y—intercept.

[2] = Stability of 4NSG in PBS (pH 7.4); format: physicochemical; details: 4NSG 10 µM, PBS pH 7.4, 37 °C, end of the 4 h study
Experimental: as §1, §2

[3] = In vitro release of 4NSG (dialysis bag, PBS pH 7.4); format: physicochemical; details: PBS pH 7.4, 37 °C
Experimental: Cumulative in vitro drug release studies were performed as previously described. Free 4NSG (3 mg), freshly prepared and lyophilized 4NSG-SLNs containing approximately 5 mg (suspended in 2 mL PBS) were placed in dialysis bags with molecular weight cut-off (MWCO) of 3.5 kDa) and immersed in their respective labeled 15 mL PBS, (pH 7.4) as the release medium and incubated at 37 °C. The free 4NSG, freshly prepared and lyophilized 4NSG-SLNs solutions were gently stirred at 100 rpm 1 mL aliquots were withdrawn and replenished with fresh PBS (maintained at 37 °C) at 0, 1, 2, 4, 8, and 12 h for analysis. The samples were analyzed for the presence of 4NSG using the HPLC system previously described under the HPLC analysis of 4NSG of the in vitro metabolic stability of the 4NSG section.

[4] = system: pancreatic patient-derived xenograft (PDX) mouse model; set-up: method as in PMID 33015617; details: earlier work of the authors ref 22; cited from earlier work
[5] = system: PPCL-192 cells; assay: Cell viability (resazurin/Alamar blue), PPCL-192; format: cell-based; details: Homo sapiens; 48 h treatment
Experimental: (§3) PCa primary cell were cultured with Dulbecco's modified Eagle medium (DMEM) with high glucose and L-glutamine and supplemented with 10% fetal bovine serum (FBS) and 1% penicillin–streptomycin (PenStrep). Briefly, PPCL-192, PPCL-135, PPCL-46, and PPCL-68 were seeded at a density of 1 × 10^3 per well in 96-well plates in triplicates for each drug concentration level and incubated at 5% CO2 and a temperature of 37 °C [32]. At 70 -75% confluency, PPCL-192, PPCL-135, PPCL-46, and PPCL-68 cells were treated with GemHCl, 4NSG-free SLN, and 4NSG-SLN. Varying concentrations of 4NSG-SLN and 4NSG-free SLN were prepared by diluting their stock solutions with a growth medium. For GemHCl, a stock solution was prepared with phosphate-buffered saline (PBS) and serially diluted with a growth medium to prepare different concentrations: 3, 6, 12, 25, 50, and 100 µM. The cells were treated with 100 µL of each drug concentration in triplicates and incubated for 48 h. At termination, 20 µL of 0.05% resazurin sodium salt (Alamar blue®) was added and incubated at optimum conditions (5% CO2, 37 °C) for 2–4 h. GloMax® Explorer Multimode Microplate reader with a fluorescence excitation wavelength of 560/580 nm and emission wavelength of 590/610 nm was used to determine the percent viable cells per concentration calculated.

[6] = system: PPCL-135 cells; assay: Cell viability (resazurin/Alamar blue), PPCL-135; format: cell-based; details: Homo sapiens; 48 h treatment
Experimental: as §3

[7] = system: PPCL-46 cells; assay: Cell viability (resazurin/Alamar blue), PPCL-46; format: cell-based; details: Homo sapiens; 48 h treatment
Experimental: as §3

[8] = system: PPCL-68 cells; assay: Cell viability (resazurin/Alamar blue), PPCL-68; format: cell-based; details: Homo sapiens; 48 h treatment
Experimental: as §3

[9] = background statement of the introduction, no reference printed with it; cited from earlier work

## CCCCCCCCCCCCCCCCCC(=O)Nc1ccn([C@@H]2OC(CO)C(O)C2(F)F)c(=O)n1 (some centres unmarked) [4NSG, 4-(N)-stearoyl-gemcitabine]
[1]
  percent unchanged 4NSG in human liver microsomal solution: about 90%
[2]
  metabolic stability of 4NSG in PBS: 99%
[3]; 2 h to 4 h, dialysis bag
  further 4NSG release in the next 2 h: 20%
[3]; dialysis bag MWCO 3.5 kDa
  cumulative 4NSG release within the first 2 h: about 60%
[4]
  morphological changes to mice's liver and kidney tissues: no morphological changes
  tumor growth in pancreatic PDX mouse model: remarkably reduced tumor growth

## Nc1ccn([C@@H]2O[C@H](CO)[C@@H](O)C2(F)F)c(=O)n1 [Gem, Gemcitabine]
[5]
  IC50: 57 ± 1.5 µM
[6]
  IC50: 56 ± 1.5 µM
[7]
  IC50: 56 ± 1.8 µM
[8]
  IC50: 57 ± 2.4 µM
[9]
  plasma circulation half-life: < 15 min
